{"source": "patent US12358880B2", "about": "“1,4-bis-(2-hydroxy-benzyl)-1,4,7-triazacyclononane derivatives and similar compounds as ligands in iron(III) complexes for use as MRI contrast agents” (BRACCO IMAGING S.P.A., priority 2022, dated 2025)", "key": {"[1]": {"assay": "Protonation constants of the Fe(III) complexes (pH-potentiometry / UV spectrophotometry)", "assay_type": "physicochemical", "description": "The protonation constants (KMHiLigand=[MHiLigand]/([MHi-1Ligand]×[H^+])) of the Fe(III) complexes of Compound 2, of Compound 4, of NOTA (comparative), and of HBED (comparative) were determined by pH-potentiometric and/or by spectrophotometric studies.\nIn particular, the protonation constants of the Fe(NOTA) and Fe(HBED) complexes were determined using pH-potentiometry by titrating the pre-prepared complexes from pH=1.7 to pH=12.0 with 0.2 M NaOH([FeL]=0.002 M). For the pH measurements and titrations, Metrohm 888 Titrando titration workstation Metrohm-6.0234.110 combined electrode was used. Equilibrium measurements were carried out at a constant ionic strength (0.15 M NaNO3 or NaClO4) in 6 ml samples at 25° C. The solutions were stirred, and N2 was bubbled through them. The titrations were made in the pH range of 1.7-12.0. KH-phthalate (pH=4.005) and borax (pH=9.177) buffers were used to calibrate the pH meter. For the calculation of [H^+] from the measured pH values, the method disclosed in Irving et al. Anal. Chim. Acta, 1967, 38, 475-488 was used as follows: a 0.01M HNO3 or HClO4 solution was titrated with a standardized NaOH solution at 0.15 M NaNO3 ionic strength. The differences (A) between the measured (pHread) and calculated pH (−log [H^+]) values were used to obtain the equilibrium H^+ concentration from the pH values measured in the titration experiments (A=0.02 for 0.15 M NaNO3, 0.01 for 0.15 M NaClO4). For the equilibrium calculations, the stoichiometric water ionic product (pKw) was also needed to calculate [OH^−] values under basic conditions. The VNaOH-pHread data pairs of the HNO3—NaOH titration obtained in the pH range 10.5-12.0 were used to calculate the pKw value (pKw=13.76).\nThe protonation constants of Fe(Compound 2) and Fe(Compound 4) complexes were determined by UV spectrophotometry analysis in the wavelength range of 210-700 nm ([Fe(Compound 2)]=43 μM, [Fe(Compound 4)]=100 μM, 0.15 M NaClO4, 25° C.) according to the method disclosed in Example 11A above."}, "[2]": {"assay": "Kinetic inertness: transchelation reactions with excess HBED as exchanging ligand", "assay_type": "physicochemical", "description": "To obtain data relating to the kinetic inertness of Fe(Compound 2), Fe(Compound 4) and Fe(NOTA) (comparative), the transchelation reactions (schematized below) were investigated by VIS-spectrophotometry (for Fe(Compound 4) and Fe(NOTA), comparative) and by Capillary Zone Electrophoresis (CZE) (for Fe(Compound 2)) in the presence of a large excess of HBED as an exchanging ligand (Fe(Compound 2): [Fe(Compound 2)]=87 μM, [HBED]=0.1 and 0.2 M, 1.0 M NaClO4, 25° C.; Fe(Compound 4): [Fe(Compound 4)]=100 μM, [HBED]=0.002 and 0.02 M, 0.15 M NaNO3, 25° C. Fe(NOTA): [Fe(NOTA)]=0.2 mM, [HBED]=2.0 and 4.0 mM, 0.15 M NaNO3, 25° C.) in order to guarantee the pseudo-first order kinetic conditions. FeL+HBED ? Fe(HBED)+L with L=Compound 2, Compound 4 or NOTA. A) Determination of Kinetic Inertness of Fe(III) Complexes\nThe transchelation reactions of Fe(Compound 4) and Fe(NOTA) (comparative) were studied by spectrophotometry, following the formation of the resulting Fe(HBED) complex at 472 and 470 nm with PerkinElmer Lambda 365 UV-Vis spectrophotometer. The concentration of the Fe(Compound 4) and Fe(NOTA) complex was 0.1 and 0.2 mM, while the concentration of the HBED was 10-200 times higher, in order to guarantee pseudo-first-order conditions. The temperature was maintained at 25° C. and the ionic strength of the solutions was kept constant, 0.15 M for NaNO3. The exchange rates were studied in the pH range about 9.5-14.0. Buffer was not used since the excess of HBED was able to maintain the constant pH values at pH<12. […] The pseudo-first-order rate constants (kd) were calculated by fitting of the absorbance—time data pairs to Equation 2.\n[formula] where At, A0 and Ap are the absorbance values at time t, the start of the reaction and at equilibrium, respectively. […] The pseudo-first-order rate constants (kd) were calculated by fitting the area-time data pairs to Equation 2 above, where At, A0 and Ap are the area values at time t, the start of the reaction and at equilibrium, respectively. […]"}, "[3]": {"details": "for pFe (−log [Fe^3+]free, conditional stability): 10 µM, pH 7.4", "procedure": "(§1) To assess the thermodynamic stability of the Fe(III) complexes of the invention, as well as of comparative ones, the protonation constants of the respective ligands first, and then of the Fe(III) complexes, were determined by pH-potentiometry and/or by UV spectrophotometry. Finally, based on the protonation constants, the thermodynamic stability constant of the Fe(III) complexes of the invention were determined by observing the competition reaction between the Fe(III) complexes and the N,N′-bis(2-hydroxybenzyl)ethylenediamine-N,N′-diacetic acid (HBED) ligand using capillary zone electrophoresis (CZE) for Compound 2 and Vis spectrophotometry for Compound 4.\n(§2) The thermodynamic stability constants (KMLigand=([MLigand]/([M]×[Ligand])) of the Fe(III) complexes were determined as follows.\n(§3) The stability constant of the Fe(NOTA) complex was determined by spectrophotometry studies of the Fe^3+-NOTA system at the absorption band of Fe^III complexes at [H^+]=0.01-3.0 M in the wavelength range of 350-800 nm. The concentrations of Fe^3+ and NOTA were 0.002 M. The H^+ concentration in the samples was adjusted with the addition of calculated amounts of a 6 M solution of HNO3 (I=[Na^+]+[H^+]=0.15, [H^+]≤0.15 M). The samples were kept at 25° C. for two weeks.\n(§4) The absorbance values of the samples were determined at 11 wavelengths (370, 380, 390, 395, 400, 405, 410, 415, 420, 425 and 430 nm). For the calculations of the thermodynamic stability constant of the Fe(NOTA), the molar absorptivities of Fe^3+ and Fe(NOTA) were determined by recording the spectra of 1.0×10^−3, 1.5×10^−3, 2.0×10^−3 and 2.5×10^−3 M solutions of Fe^3+ and Fe(NOTA) solutions. The absorption spectra of the Fe(NOTA) solutions were recorded in the pH range of 1.7-7.5. All spectrophotometric measurements were performed at 25° C. in 0.15 M NaNO3 solution. The pH was adjusted by stepwise addition of concentrated NaOH or HNO3 solutions.\n(§5) The stability constants of the Fe(HBED) complex was determined by following the competition reaction between HBED and NOTA ligands for Fe^3+-ion with spectrophotometry at the absorption band of Fe(HBED) complex in the wavelength range of 400-700 nm. […] The time needed to reach the equilibria was determined by spectrophotometry. The absorbance values of the samples were determined at the absorption band of the Fe(HBED) complex ([Fe(HBED)]-species predominates at pH=5.0). For the calculations of the thermodynamic stability constants of the Fe(HBED) complexes, the molar absorptivities of [Fe(HBED)]-species were determined by recording the spectra of 0.5, 0.1 and 0.2 mM solutions of [Fe(HBED)]^− at pH=5 in the presence of 0.15 M NaNO3. […] The thermodynamic stability constants were calculated with the PSEQUAD program. […]"}, "[4]": {"details": "60 MHZ, 40° C. in PBS buffer; cited from earlier work"}, "[5]": {"details": "0.15M NaNO3; from Baranyai et al., Chem. Sci. 2021; cited from earlier work"}, "[6]": {"assay": "Thermodynamic stability of the Fe(III) complexes (competition with HBED/NOTA, CZE or spectrophotometry)", "details": "Spectrophotometry, 0.15M NaNO3, 25° C.", "procedure": "as §1, §2, §3, §4, §5"}, "[7]": {"details": "pH-potentiometry, 0.15M NaNO3, 25° C."}, "[8]": {"details": "0.15M NaNO3, 25° C., spectrophotometry"}, "[9]": {"details": "Spectrophotometry, 0.15M NaClO4, 25° C."}}, "note": "Like-named read-outs stand apart in the source and are kept apart here. Marks after values point to notes of the source that are not given here."}
{"smiles": "O=C(O)CN1CCN(CC(=O)O)CCN(CC(=O)O)CC1", "note": "[NOTA, reference compound]", "values": [{"measurement": "FeLH−1 (protonation constant of the Fe(III) complex)", "setting": "[1]; [7]", "value": "9.12 (4)"}, {"measurement": "kd (s^−1) at pH = 7.4 (dissociation rate constant)", "setting": "[2]; [8]", "value": "4.0 × 10^−9 s^−1"}]}
{"smiles": "Cc1cc(CNC(CO)CO)c(O)c(CN2CCN(Cc3cc(C)cc(CNC(CO)CO)c3O)CCN(Cc3cc(C)cc(CNC(CO)CO)c3O)CC2)c1", "note": "[Compound 2, 2,2′,2″-{1,4,7-triazonane-1,4,7-triyltris[methylene(2-hydroxy-5-methyl-3,1-phenylene)methyleneazanediyl]}tri(propane-1,3-diol)]", "values": [{"measurement": "FeH2L (protonation constant of the Fe(III) complex)", "setting": "[1]; [9]", "value": "9.47 (1)^b"}, {"measurement": "FeH3L (protonation constant of the Fe(III) complex)", "setting": "[1]; [9]", "value": "7.82 (5)^b"}, {"measurement": "FeHL (protonation constant of the Fe(III) complex)", "setting": "[1]; [9]", "value": "10.53 (4)^b"}, {"measurement": "kd (s^−1) at pH = 7.4 (dissociation rate constant)", "setting": "[2]; 1.0M NaClO4, 25° C., CZE, extrapolated from data at pH>9.0", "value": "1.9 × 10^−9 s^−1"}, {"measurement": "pFe (−log [Fe^3+]free, conditional stability)", "setting": "[3]", "value": 32.4}, {"measurement": "FeL (thermodynamic stability constant, log KFeL)", "setting": "[3]; 4 weeks, 87 µM, pH 11", "value": "44.0 (3)"}]}
{"smiles": "O=C(O)CN(CCN(CC(=O)O)Cc1ccccc1O)Cc1ccccc1O", "note": "[HBED, N,N′-bis(2-hydroxybenzyl)ethylenediamine-N,N′-diacetic acid, reference compound]", "values": [{"measurement": "FeHL (protonation constant of the Fe(III) complex)", "setting": "[1]; [7]", "value": "1.87 (4)"}, {"measurement": "FeLH−1 (protonation constant of the Fe(III) complex)", "setting": "[1]; [7]", "value": "12.3 (1)"}, {"measurement": "r1 of Fe(III) complex", "setting": "[4]", "value": 0.49, "unit": "mM⁻¹ s⁻¹"}]}
{"smiles": "O=C(O)CN(CCN(CC(=O)O)CC(=O)O)CC(=O)O", "note": "[EDTA]", "values": [{"measurement": "kd (s^−1) at pH = 7.4 (dissociation rate constant)", "setting": "[5]", "value": "2.9 × 10^−6 s^−1"}]}
{"smiles": "O=C([O-])CN(CCN(CC(=O)[O-])Cc1ccccc1[O-])Cc1ccccc1[O-].[Fe+3]", "note": "[Fe(HBED)]", "values": [{"measurement": "FeL (thermodynamic stability constant, log KFeL)", "setting": "[6]", "value": 40.2}]}
{"smiles": "O=C(O)CN(CC(=O)O)C1CCCCC1N(CC(=O)O)CC(=O)O", "note": "(stereo not drawn) [CDTA, trans-cyclohexane diamine tetraacetic acid]", "values": [{"measurement": "kd (s^−1) at pH = 7.4 (dissociation rate constant)", "setting": "[5]", "value": "2.1 × 10^−9 s^−1"}]}
{"smiles": "Cc1cc(CNC(CO)CO)c(O)c(CN2CCNCCN(Cc3cc(C)cc(CNC(CO)CO)c3O)CC2)c1", "note": "[Compound 4, 2,2′-{1,4,7-triazonane-1,4-diylbis[methylene(2-hydroxy-5-methyl-3,1-phenylene)methyleneazanediyl]}di(propane-1,3-diol)]", "values": [{"measurement": "FeH2L (protonation constant of the Fe(III) complex)", "setting": "[1]; [9]", "value": "6.02 (1)^b"}, {"measurement": "FeHL (protonation constant of the Fe(III) complex)", "setting": "[1]; [9]", "value": "8.82 (1)^b"}, {"measurement": "FeLH−1 (protonation constant of the Fe(III) complex)", "setting": "[1]; [9]", "value": "10.12 (1)^b"}, {"measurement": "kd (s^−1) at pH = 7.4 (dissociation rate constant)", "setting": "[2]; [8]", "value": "3.4 × 10^−8 s^−1"}, {"measurement": "pFe (−log [Fe^3+]free, conditional stability)", "setting": "[3]", "value": 26.5}]}
